Source: article PMC3735612, “Functional Identification of Close Proximity Amino Acid Side Chains within the Transmembrane-Spanning Helixes of the P2X2 Receptor” (PLoS ONE, 2013)
Where a chain is given by its changes, count along the chain named.

Legend:
Test in all cases: perforated-patch whole-cell voltage clamp, peak ATP-gated current, Hill fit
Format in all cases: cell-based
[1] = target: T1, rP2X2R (rP2X2R-WT; rP2X2R-T for the C348T background) (Rattus norvegicus, UniProt P49653, C348T/H33A)
T1 construct: gene P2rx2; full-length, C-terminal FLAG tag (DYKDDDDK), transiently expressed in HEK293 cells with EGFP; homotrimer; monomer about 62 kDa on SDS-PAGE; all point mutants made on the C348T (rP2X2R-T) background
T1 sequence (P49653 1-472 H33A/C348T): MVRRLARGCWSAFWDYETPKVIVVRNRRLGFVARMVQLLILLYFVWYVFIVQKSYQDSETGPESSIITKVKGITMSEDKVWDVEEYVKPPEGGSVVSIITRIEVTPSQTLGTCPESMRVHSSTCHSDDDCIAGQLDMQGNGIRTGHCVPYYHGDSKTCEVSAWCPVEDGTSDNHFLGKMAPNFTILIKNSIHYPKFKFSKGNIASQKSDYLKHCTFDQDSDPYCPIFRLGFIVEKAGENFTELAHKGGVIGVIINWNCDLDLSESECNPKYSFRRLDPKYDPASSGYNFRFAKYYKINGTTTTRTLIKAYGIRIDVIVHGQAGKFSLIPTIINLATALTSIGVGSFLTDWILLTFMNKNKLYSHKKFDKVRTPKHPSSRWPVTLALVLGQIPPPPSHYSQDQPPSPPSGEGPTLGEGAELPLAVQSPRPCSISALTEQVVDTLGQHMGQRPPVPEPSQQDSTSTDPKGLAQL
Text: (§1) perforated-patch whole-cell voltage clamp, peak ATP-gated current, Hill fit on rP2X2R (rP2X2R-WT; rP2X2R-T for the C348T background)

[2] = target: T2, rP2X2R (rP2X2R-WT; rP2X2R-T for the C348T background) (Rattus norvegicus, UniProt P49653, C348T/I328A)
T2 construct: gene P2rx2; full-length, C-terminal FLAG tag (DYKDDDDK), transiently expressed in HEK293 cells with EGFP; homotrimer; monomer about 62 kDa on SDS-PAGE; all point mutants made on the C348T (rP2X2R-T) background
T2 sequence (P49653 1-472 I328A/C348T): T1 sequence (P49653 1-472 H33A/C348T) with A33H, I328A
Text: as §1

[3] = target: T3, rP2X2R (rP2X2R-WT; rP2X2R-T for the C348T background) (Rattus norvegicus, UniProt P49653, C348T/S345A)
T3 construct: gene P2rx2; full-length, C-terminal FLAG tag (DYKDDDDK), transiently expressed in HEK293 cells with EGFP; homotrimer; monomer about 62 kDa on SDS-PAGE; all point mutants made on the C348T (rP2X2R-T) background
T3 sequence (P49653 1-472 S345A/C348T): T1 sequence (P49653 1-472 H33A/C348T) with A33H, S345A
Text: as §1

[4] = target: T4, rP2X2R (rP2X2R-WT; rP2X2R-T for the C348T background) (Rattus norvegicus, UniProt P49653, C348T/H33A/S345A)
T4 construct: gene P2rx2; full-length, C-terminal FLAG tag (DYKDDDDK), transiently expressed in HEK293 cells with EGFP; homotrimer; monomer about 62 kDa on SDS-PAGE; all point mutants made on the C348T (rP2X2R-T) background
T4 sequence (P49653 1-472 H33A/S345A/C348T): T1 sequence (P49653 1-472 H33A/C348T) with S345A
Text: as §1

[5] = target: T5, rP2X2R (rP2X2R-WT; rP2X2R-T for the C348T background) (Rattus norvegicus, UniProt P49653, C348T/F44C)
T5 construct: gene P2rx2; full-length, C-terminal FLAG tag (DYKDDDDK), transiently expressed in HEK293 cells with EGFP; homotrimer; monomer about 62 kDa on SDS-PAGE; all point mutants made on the C348T (rP2X2R-T) background
T5 sequence (P49653 1-472 F44C/C348T): T1 sequence (P49653 1-472 H33A/C348T) with A33H, F44C
Text: as §1

[6] = target: T6, rP2X2R (rP2X2R-WT; rP2X2R-T for the C348T background) (Rattus norvegicus, UniProt P49653, C348T/H33C/S345C)
T6 construct: gene P2rx2; full-length, C-terminal FLAG tag (DYKDDDDK), transiently expressed in HEK293 cells with EGFP; homotrimer; monomer about 62 kDa on SDS-PAGE; all point mutants made on the C348T (rP2X2R-T) background
T6 sequence (P49653 1-472 H33C/S345C/C348T): T1 sequence (P49653 1-472 H33A/C348T) with A33C, S345C
Text: as §1

[7] = target: T7, rP2X2R (rP2X2R-WT; rP2X2R-T for the C348T background) (Rattus norvegicus, UniProt P49653, C348T/S345C)
T7 construct: gene P2rx2; full-length, C-terminal FLAG tag (DYKDDDDK), transiently expressed in HEK293 cells with EGFP; homotrimer; monomer about 62 kDa on SDS-PAGE; all point mutants made on the C348T (rP2X2R-T) background
T7 sequence (P49653 1-472 S345C/C348T): T1 sequence (P49653 1-472 H33A/C348T) with A33H, S345C
Text: as §1

[8] = target: T8, rP2X2R (rP2X2R-WT; rP2X2R-T for the C348T background) (Rattus norvegicus, UniProt P49653, C348T/I328C/V48C)
T8 construct: gene P2rx2; full-length, C-terminal FLAG tag (DYKDDDDK), transiently expressed in HEK293 cells with EGFP; homotrimer; monomer about 62 kDa on SDS-PAGE; all point mutants made on the C348T (rP2X2R-T) background
T8 sequence (P49653 1-472 V48C/I328C/C348T): T1 sequence (P49653 1-472 H33A/C348T) with A33H, V48C, I328C
Text: as §1

[9] = target: T9, rP2X2R (rP2X2R-WT; rP2X2R-T for the C348T background) (Rattus norvegicus, UniProt P49653, C348T/H33C)
T9 construct: gene P2rx2; full-length, C-terminal FLAG tag (DYKDDDDK), transiently expressed in HEK293 cells with EGFP; homotrimer; monomer about 62 kDa on SDS-PAGE; all point mutants made on the C348T (rP2X2R-T) background
T9 sequence (P49653 1-472 H33C/C348T): T1 sequence (P49653 1-472 H33A/C348T) with A33C
Text: as §1

`Nc1ncnc2c1ncn2[C@@H]1O[C@H](COP(=O)(O)OP(=O)(O)OP(=O)(O)O)[C@@H](O)[C@H]1O` [ATP] showed an EC50 [1] of 4.2 ± 0.6 µM, an EC50 [2] of 0.4 ± 0.1 µM and an EC50 [3] of 12.1 ± 0.7 µM. It also gave an EC50 [4] of 35.7 ± 0.5 µM, an EC50 [5] of 0.81 ± 0.1 µM and an EC50 [6] of 7.3 ± 1.1 µM. It also gave an EC50 [7] of 6.3 ± 0.9 µM, an EC50 [8] of 17.8 ± 2 µM and an EC50 [9] of 2.3 ± 0.5 µM.
